Measured values as given in patent US8541588B2, “Sulfonamide derivatives” (Pfizer Limited, priority 2009, dated 2013).

Biological target: T1, Nav1.7 (or SCN9A) channel; HEK cells stably transfected with hSCN9A (Homo sapiens, UniProt Q15858)
T1 construct: expressed in transfected cells
Test: Nav1.7 block, PatchXpress 7000 automated whole-cell voltage clamp, estimated IC50 (EIC50)
Assay type: cell-based
Details: estimated IC50; hSCN9A HEK cells, PatchXpress platform; Examples 283-814

T1 sequence (Q15858 whole entry): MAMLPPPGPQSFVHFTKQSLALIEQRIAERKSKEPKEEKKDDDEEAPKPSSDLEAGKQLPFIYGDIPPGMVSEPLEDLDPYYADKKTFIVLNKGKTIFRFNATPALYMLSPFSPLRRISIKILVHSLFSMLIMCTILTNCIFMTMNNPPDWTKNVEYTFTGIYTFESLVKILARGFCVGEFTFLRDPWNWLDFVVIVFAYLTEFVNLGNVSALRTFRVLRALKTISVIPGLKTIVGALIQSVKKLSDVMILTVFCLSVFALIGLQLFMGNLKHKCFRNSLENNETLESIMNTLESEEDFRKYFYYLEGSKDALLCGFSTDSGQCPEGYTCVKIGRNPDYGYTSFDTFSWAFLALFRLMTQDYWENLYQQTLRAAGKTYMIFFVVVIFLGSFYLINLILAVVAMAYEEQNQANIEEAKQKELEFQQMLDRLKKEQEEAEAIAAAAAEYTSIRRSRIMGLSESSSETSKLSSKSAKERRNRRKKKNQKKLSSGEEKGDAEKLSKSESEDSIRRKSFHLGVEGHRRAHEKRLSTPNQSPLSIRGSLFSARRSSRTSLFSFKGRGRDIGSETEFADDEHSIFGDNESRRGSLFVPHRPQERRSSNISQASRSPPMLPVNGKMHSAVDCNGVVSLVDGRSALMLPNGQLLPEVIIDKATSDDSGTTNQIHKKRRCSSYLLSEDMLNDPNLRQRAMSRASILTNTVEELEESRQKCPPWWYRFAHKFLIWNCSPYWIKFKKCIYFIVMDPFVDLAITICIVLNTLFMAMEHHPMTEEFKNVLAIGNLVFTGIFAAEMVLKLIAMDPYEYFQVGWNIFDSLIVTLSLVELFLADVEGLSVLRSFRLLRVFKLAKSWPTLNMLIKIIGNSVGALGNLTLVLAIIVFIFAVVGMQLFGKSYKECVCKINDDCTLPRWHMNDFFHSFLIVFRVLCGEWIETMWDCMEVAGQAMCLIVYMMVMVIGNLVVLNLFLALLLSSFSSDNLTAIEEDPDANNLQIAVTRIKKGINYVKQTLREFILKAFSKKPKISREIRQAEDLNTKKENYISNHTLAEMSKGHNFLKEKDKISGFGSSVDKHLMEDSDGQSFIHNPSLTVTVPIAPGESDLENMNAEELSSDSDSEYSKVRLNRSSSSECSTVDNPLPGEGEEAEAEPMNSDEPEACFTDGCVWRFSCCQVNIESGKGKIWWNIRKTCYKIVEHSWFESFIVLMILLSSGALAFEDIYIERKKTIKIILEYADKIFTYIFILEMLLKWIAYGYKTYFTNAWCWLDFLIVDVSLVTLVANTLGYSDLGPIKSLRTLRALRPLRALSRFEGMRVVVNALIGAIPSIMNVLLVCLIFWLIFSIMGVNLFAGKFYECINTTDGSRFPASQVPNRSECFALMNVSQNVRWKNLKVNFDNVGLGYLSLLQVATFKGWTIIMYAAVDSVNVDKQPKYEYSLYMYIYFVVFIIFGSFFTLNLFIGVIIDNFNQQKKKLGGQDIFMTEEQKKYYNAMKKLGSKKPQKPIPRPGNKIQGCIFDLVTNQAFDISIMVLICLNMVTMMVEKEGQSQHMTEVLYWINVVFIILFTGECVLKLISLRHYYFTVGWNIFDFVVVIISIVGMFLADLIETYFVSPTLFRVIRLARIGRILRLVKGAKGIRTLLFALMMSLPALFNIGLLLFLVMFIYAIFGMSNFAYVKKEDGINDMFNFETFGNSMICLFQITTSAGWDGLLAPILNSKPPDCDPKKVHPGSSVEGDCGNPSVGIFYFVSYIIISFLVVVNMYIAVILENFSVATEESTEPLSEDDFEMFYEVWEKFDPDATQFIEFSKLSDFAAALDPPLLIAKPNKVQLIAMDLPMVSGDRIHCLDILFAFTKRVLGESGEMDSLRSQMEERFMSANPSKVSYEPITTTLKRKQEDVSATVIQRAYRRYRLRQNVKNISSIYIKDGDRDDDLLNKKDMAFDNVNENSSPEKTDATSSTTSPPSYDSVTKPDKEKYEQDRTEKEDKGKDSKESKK

`Nc1nccc(-c2cc(F)ccc2Oc2cc(F)c(S(=O)(=O)Nc3ncc(Cl)s3)cc2F)n1` [Example 622, 4-[2-(2-aminopyrimidin-4-yl)-4-fluorophenoxy]-N-(5-chloro-1,3-thiazol-2-yl)-2,5-difluorobenzenesulfonamide] was tested, and the IC50 was >1000 nM.

`O=S(=O)(Nc1ccc(F)cn1)c1cc(Cl)c(Oc2ccc(Cl)cc2C2CCNCC2)cc1F` [Example 623, 5-chloro-4-(4-chloro-2-piperidin-4-ylphenoxy)-2-fluoro-N-(5-fluoropyridin-2-yl)benzenesulfonamide] was tested, and the IC50 was 46 nM.

For `Cn1nccc1-c1cc(F)ccc1Oc1cc(F)c(S(=O)(=O)Nc2cscn2)cc1Br` [Example 625, 5-bromo-2-fluoro-4-[4-fluoro-2-(1-methyl-1H-pyrazol-5-yl)phenoxy]-N-1,3-thiazol-4-ylbenzenesulfonamide], the IC50 was 18 nM.

Work on `Cc1cc(S(=O)(=O)Nc2cscn2)c(F)cc1Oc1ccc(F)cc1-c1ccnn1C` [Example 626, 2-fluoro-4-[4-fluoro-2-(1-methyl-1H-pyrazol-5-yl)phenoxy]-5-methyl-N-1,3-thiazol-4-ylbenzenesulfonamide] yielded an IC50 of 120 nM.

Work on `CCc1cc(S(=O)(=O)Nc2cscn2)c(F)cc1Oc1ccc(F)cc1-c1ccnn1C` [Example 627, 5-ethyl-2-fluoro-4-[4-fluoro-2-(1-methyl-1H-pyrazol-5-yl)phenoxy]-N-1,3-thiazol-4-ylbenzenesulfonamide] yielded an IC50 of 160 nM.

`Cc1cc(S(=O)(=O)Nc2cscn2)ccc1Oc1ccccc1-c1ccnn1C` [Example 628, 3-methyl-4-[2-(1-methyl-1H-pyrazol-5-yl)phenoxy]-N-1,3-thiazol-4-ylbenzenesulfonamide] gave an IC50 of 1000 nM.

Work on `Cn1nccc1-c1ccccc1Oc1ccc(S(=O)(=O)Nc2cscn2)cc1I` [Example 629, 3-iodo-4-[2-(1-methyl-1H-pyrazol-5-yl)phenoxy]-N-1,3-thiazol-4-ylbenzenesulfonamide] yielded an IC50 of 240 nM.

`Cc1scnc1NS(=O)(=O)c1cc(Cl)c(Oc2ccc(F)cc2-c2ccnn2C)cc1F` [Example 630, 5-chloro-2-fluoro-4-(4-fluoro-2-(1-methyl-1H-pyrazol-5-yl)phenoxy)-N-(5-methylthiazol-4-yl)benzenesulfonamide] was tested, and the IC50 was >1000 nM.

In the case of `Cn1nccc1-c1cc(Cl)ccc1Oc1ncc(S(=O)(=O)Nc2cscn2)cc1Cl` [Example 631, 5-chloro-6-(4-chloro-2-(1-methyl-1H-pyrazol-5-yl)phenoxy)-N-(thiazol-4-yl)pyridine-3-sulfonamide], the IC50 is reported as 3300 nM.

`O=S(=O)(Nc1ncns1)c1cc(F)c(Oc2ccc(C(F)(F)F)cc2-c2cnccn2)cc1F` [Example 632, 2,5-difluoro-4-[2-pyrazin-2-yl-4-(trifluoromethyl)phenoxy]-N-1,2,4-thiadiazol-5-ylbenzenesulfonamide] showed an IC50 of 100 nM.

For `O=S(=O)(Nc1ncns1)c1cc(F)c(Oc2ccc(C(F)(F)F)cc2C2CCOCC2)cc1F` [Example 633, 2,5-difluoro-4-[2-(tetrahydro-2H-pyran-4-yl)-4-(trifluoromethyl)phenoxy]-N-1,2,4-thiadiazol-5-ylbenzenesulfonamide], the IC50 was 27 nM.

`Nc1cc(-c2cc(F)ccc2Oc2cc(F)c(S(=O)(=O)Nc3ncns3)cc2F)ccn1` [Example 634, 4-[2-(2-aminopyridin-4-yl)-4-fluorophenoxy]-2,5-difluoro-N-1,2,4-thiadiazol-5-ylbenzenesulfonamide] showed an IC50 of 11 nM.

`Cc1[nH]ncc1-c1cc(Cl)ccc1Oc1cc(F)c(S(=O)(=O)Nc2ncns2)cc1F` [Example 635, 4-[4-chloro-2-(5-methyl-1H-pyrazol-4-yl)phenoxy]-2,5-difluoro-N-1,2,4-thiadiazol-5-ylbenzenesulfonamide] gave an IC50 of 6.3 nM.

Compound `O=S(=O)(Nc1ncns1)c1cc(F)c(Oc2ccc(Cl)cc2-c2ccn[nH]2)cc1F` [Example 637, 4-[4-Chloro-2-(1H-pyrazol-5-yl)phenoxy]-2,5-difluoro-N-1,2,4-thiadiazol-5-ylbenzenesulfonamide] has an IC50 of 16 nM.

Work on `N#Cc1cc(S(=O)(=O)Nc2nccs2)ccc1Oc1cccc(-c2cccc(N)n2)c1` [Example 639, 4-[3-(6-aminopyridin-2-yl)phenoxy]-3-cyano-N-1,3-thiazol-2-ylbenzenesulfonamide] yielded an IC50 of 6900 nM.

`CC(=O)N1CC(c2cc(Cl)ccc2Oc2ccc(S(=O)(=O)Nc3nccs3)cc2C#N)C1` [Example 640, 4-[2-(1-acetylazetidin-3-yl)-4-chlorophenoxy]-3-cyano-N-1,3-thiazol-2-ylbenzenesulfonamide] gave an IC50 of 1000 nM.

Work on `N#Cc1cc(S(=O)(=O)Nc2nccs2)ccc1Oc1ccc(F)cc1-c1cnn(CC(F)(F)F)c1` [Example 641, 3-cyano-4-{4-fluoro-2-[1-(2,2,2-trifluoroethyl)-1H-pyrazol-4-yl]phenoxy}-N-1,3-thiazol-2-ylbenzenesulfonamide] yielded an IC50 of 1300 nM.

`N#Cc1cc(S(=O)(=O)Nc2nccs2)ccc1Oc1ccc(Cn2cccn2)cc1F` [Example 642, 3-cyano-4-[2-fluoro-4-(1H-pyrazol-1-ylmethyl)phenoxy]-N-1,3-azol-2-ylbenzenesulfonamide] was tested, and the IC50 was 2600 nM.

With `N#Cc1cc(S(=O)(=O)Nc2nccs2)ccc1Oc1ccc(-n2ccc(C(F)(F)F)n2)nc1` [Example 643, 3-cyano-N-1,3-thiazol-2-yl-4-({6-[3-(trifluoromethyl)-1H-pyrazol-1-yl]pyridin-3-yl}oxy)benzenesulfonamide] the IC50 was 2100 nM.

With `N#Cc1cc(S(=O)(=O)Nc2nccs2)ccc1Oc1ccc(Oc2ccccc2)nc1` [Example 644, 3-cyano-4-[(6-phenoxypyridin-3-yl)oxy]-N-1,3-thiazol-2-ylbenzenesulfonamide] the IC50 was 2600 nM.

With `Cn1nccc1-c1ccc(Oc2ccc(S(=O)(=O)Nc3nccs3)cc2C#N)cn1` [Example 645, 3-cyano-4-{[6-(1-methyl-1H-pyrazol-5-yl)pyridin-3-yl]oxy}-N-1,3-thiazol-2-ylbenzenesulfonamide] the IC50 was >1000 nM.

With `N#Cc1cc(S(=O)(=O)Nc2nccs2)ccc1Oc1ccc(-c2ccccc2)nc1` [Example 646, 3-cyano-4-[(6-phenylpyridin-3-yl)oxy]-N-1,3-thiazol-2-ylbenzenesulfonamide] the IC50 was 2800 nM.

`Cn1nc(C(F)(F)F)cc1-c1ccc(Oc2ccc(S(=O)(=O)Nc3nccs3)cc2C#N)cn1` [Example 647, 3-cyano-4-({6-[1-methyl-3-(trifluoromethyl)-1H-pyrazol-5-yl]pyridin-3-yl}oxy)-N-1,3-thiazol-2-ylbenzenesulfonamide] showed an IC50 of 2900 nM.

Work on `Cn1nccc1-c1cc(Oc2ccc(S(=O)(=O)Nc3nccs3)cc2C#N)ccc1Cl` [Example 648, 4-[4-chloro-3-(1-methyl-1H-pyrazol-5-yl)phenoxy]-3-cyano-N-1,3-thiazol-2-ylbenzenesulfonamide] yielded an IC50 of 1600 nM.

For `Cc1cc(C(F)(F)F)nn1-c1cccc(Oc2ccc(S(=O)(=O)Nc3nccs3)cc2C#N)c1` [Example 650, 3-cyano-4-{3-[5-methyl-3-(trifluoromethyl)-1H-pyrazol-1-yl]phenoxy}-N-1,3-thiazol-2-ylbenzenesulfonamide], the IC50 was 1600 nM.

Compound `Cn1ccnc1-c1cc(Cl)ccc1Oc1ccc(S(=O)(=O)Nc2nccs2)cc1C#N` [Example 651, 4-[4-chloro-2-(1-methyl-1H-imidazol-2-yl)phenoxy]-3-cyano-N-1,3-thiazol-2-ylbenzenesulfonamide] has an IC50 of 1000 nM.

`N#Cc1cc(S(=O)(=O)Nc2nccs2)ccc1Oc1ccc(Cl)cc1-c1cnccn1` [Example 652, 4-(4-chloro-2-pyrazin-2-ylphenoxy)-3-cyano-N-1,3-thiazol-2-ylbenzenesulfonamide] gave an IC50 of 900 nM.

In the case of `Cn1nc(C(F)(F)F)cc1-c1cc(F)cc(Oc2ccc(S(=O)(=O)Nc3nccs3)cc2C#N)c1` [Example 653, 3-cyano-4-{3-fluoro-5-[1-methyl-3-(trifluoromethyl)-1H-pyrazol-5-yl]phenoxy}-N-1,3-thiazol-2-ylbenzenesulfonamide], the IC50 is reported as 1100 nM.

With `COCc1cc(C(F)F)nn1-c1cccc(Oc2ccc(S(=O)(=O)Nc3nccs3)cc2C#N)c1` [Example 654, 3-cyano-4-{3-[3-(difluoromethyl)-5-(methoxymethyl)-1H-pyrazol-1-yl]phenoxy}-N-1,3-thiazol-2-ylbenzenesulfonamide] the IC50 was 1100 nM.

`O=S(=O)(Nc1cscn1)c1cc(Cl)c(Oc2ccc(Cl)cc2C2CCNCC2)cc1F` [Example 655, 5-chloro-4-(4-chloro-2-piperidin-4-ylphenoxy)-2-fluoro-N-1,3-thiazol-4-ylbenzenesulfonamide] showed an IC50 of 49 nM.

`Cn1nccc1-c1nc(C(F)(F)F)ccc1Oc1cc(F)c(S(=O)(=O)Nc2cscn2)cc1Cl` [Example 656, 5-chloro-2-fluoro-4-{[2-(1-methyl-1H-pyrazol-5-yl)-6-(trifluoromethyl)pyridin-3-yl]oxy}-N-1,3-thiazol-4-ylbenzenesulfonamide] gave an IC50 of 270 nM.

`Cn1nccc1-c1cc(F)ccc1Oc1cc(F)c(S(=O)(=O)Nc2cscn2)cc1Cl` [Example 657, 5-chloro-2-fluoro-4-[4-fluoro-2-(1-methyl-1H-pyrazol-5-yl)phenoxy]-N-1,3-thiazol-4-ylbenzenesulfonamide] showed an IC50 of 83 nM.

For `O=S(=O)(Nc1cscn1)c1cc(Cl)c(Oc2ccc(F)cc2-c2ccn[nH]2)cc1F` [Example 658, 5-chloro-2-fluoro-4-[4-fluoro-2-(1H-pyrazol-5-yl)phenoxy]-N-1,3-thiazol-4-ylbenzenesulfonamide], the IC50 was 250 nM.

For `O=S(=O)(Nc1cscn1)c1cc(Cl)c(Oc2ccc(C(F)(F)F)cc2-c2cn[nH]c2)cc1F` [Example 659, 5-chloro-2-fluoro-4-[2-(1H-pyrazol-4-yl)-4-(trifluoromethyl)phenoxy]-N-1,3-thiazol-4-ylbenzenesulfonamide], the IC50 was 91 nM.

`O=S(=O)(Nc1cscn1)c1cc(Cl)c(Oc2ccc(Cl)cc2-c2cn[nH]c2)cc1F` [Example 661, 5-chloro-4-[4-chloro-2-(1H-pyrazol-4-yl)phenoxy]-2-fluoro-N-1,3-thiazol-4-ylbenzenesulfonamide] was tested, and the IC50 was 77 nM.

`Cc1n[nH]cc1-c1cc(Cl)ccc1Oc1cc(F)c(S(=O)(=O)Nc2cscn2)cc1Cl` [Example 662, 5-chloro-4-[4-chloro-2-(3-methyl-1H-pyrazol-4-yl)phenoxy]-2-fluoro-N-1,3-thiazol-4-ylbenzenesulfonamide] gave an IC50 of 33 nM.
